{"source": "patent US20190390245A1", "about": "“CYTOTOXICITY TEST METHOD FOR MEDICAL DEVICE” (ALCON INC., priority 2018, published 2019)", "key": {"[1]": {"tested_on": "L929 cells", "experiment": "Two layer embedded modified agar overlay cytotoxicity test", "description": "The test article meets the ‘pass’ criteria of the test if the biological response is less than or equal to grade 2 (mild).\n1×MEMAOM was used as the nutrient supplement agar at 2 mL/well.\nB) Two layer embedded modified agar overlay. The test materials were added after the base nutrient agar solidified, and 2.0 mL of L929 (1.8×10^6 cells/mL) cell agar mixture described above was added on top of the test materials to fully cover the test materials with a final cell concentration of 3.6×10^6 cells/well. After 24 hours of incubation, cells were examined as described in ISO/USP agar overlay method.\nC) For the extended study duration, cells were prepared as described in A) and B). Reference material A and no treatment were evaluated for up to 72-hour incubation.\nD) two layer modified and embedded modified agar overlay for liquid materials. Paper filter discs (100 μL of either 100% Ethanol or 2000 ppm BAK) were prepared as described in A) and B)."}, "[2]": {"tested_on": "L929 cells", "experiment": "ISO/USP (traditional) agar overlay cytotoxicity test", "assay_type": "cell-based, Mouse", "description": "The ISO 10993-5 (2009) qualitative agar diffusion/overlay assay is appropriate for high density materials and liquids. This assay is conducted by adding a thin layer of nutrient-supplemented agar over the near confluent monolayer of L929 cells, and the test material (a solid sample, or an extract of the test material or liquid placed on filter paper) is placed on top of the agar layer. The cushioning effect of an agar layer protects the L929 cells from the potential mechanical damage by the test material's movement. Cells are examined after 24-hours incubation for signs of toxicity and stained with neutral red dye to differentiate between the viable, stressed or lysed cells. Cytotoxic leachates diffuse into the cell layer through the agar, and toxicity is indicated by a loss of viable cells around the test device as evidenced by area devoid of stain under and around the test material. The disadvantage of agar overlay assay is that potential cytotoxic leachates may bind to the agar and not be able to diffuse across the plate as compared to the liquid medium; thus, the cells are not fully exposed to the test substance."}, "[3]": {"tested_on": "L929 cells", "conditions": "concentration known to be toxic to the rabbit eyes; Bruinink and Luginbuehl, 2012; cited from earlier work"}}, "note": "Read-outs that look alike come from different tables or passages of the source."}
{"compound": "CCO", "note": "[Ethanol, ethanol]", "values": [{"measurement": "Color zone formation (observation), Two layer embedded Modified Agar Overlay", "setting": "[1]; Table 4, liquids, 100 μL on paper filter", "result": "no zone"}]}
{"compound": "Benzalkonium Chloride [BAK]", "values": [{"measurement": "Grade, color zone formation, ISO/USP Agar Overlay", "setting": "[2]", "result": "Grade 0"}, {"measurement": "Color zone formation (observation), Two layer embedded Modified Agar Overlay", "setting": "[1]", "result": "no zone"}, {"measurement": "Cytotoxicity responses, traditional agar overlay method (previous observations)", "setting": "[3]", "result": "failed to show cytotoxicity responses"}]}
